Source: patent US6984656B2, “Core modified porphyrins” (priority 2001, dated 2006)

System: Colo-26 tumors
Experiment: PDT against implanted Colo-26 tumors in BALB/c mice
Assay type: in vivo
Conditions: 135 J cm^−2; DH-105 2.5, DH-82 0.13, MA-99 0.15 mg/kg, 694 nm 4 h post-injection; Photofrin® 2.5 mg/kg, 630 nm 24 h
Protocol: Core-modified porphyrin 6 gave a PDT response in vivo with 694-nm light in BALB/c mice bearing Colo-26 tumors. Animals treated with photosensitizer 6 at 3.25 mg (3.0 μmol)/kg and light required 10.3±0.8 d to reach 400-mm^3 tumor volume, which was more than double the time for control animals (4.3±1.0 d) receiving neither drug nor light (P <0.01).
The animals were irradiated 4 h post-injection with 135 J cm^−2 of 694-nm red light from a dye laser (75 mW cm^−2 for 30 min). […] For comparison purposes, BALB/C mice bearing Colo-26 tumors were given 2.5 mg (4.0 μmol)/kg of Photofrin® as a 5% aqueous dextrose solution and were irradiated 24 h later with 135 J cm^−2 of 630-nm laser light at a power of 75 mW cm^−2 for PDT with Photofrin®.
Animals initially were given i.v. (tail vein) injections of sensitizer at various concentrations (0.05to 5.0 μmol/kg). Mice were restrained at various times thereafter without anesthesia in specially designed holders. Fischer 344 female rats were chemically restrained at various times thereafter. In both models, tumors or normal back skin were exposed to light from a xenon arc lamp with appropriate filters or to a dye laser tuned to the absorption maximum determined by in vivo reflectance measurements. Power density of delivered light typically fell in the range of 10-200 mW cm^−2 evenly distributed to a spot size of roughly 1.5 cm and measured by a radiometer. Several dose rates were explored to examine role/limitation of available oxygen on the photodynamic process. Intratumor temperatures were measured with an Omega HYP-O microthermocouple and, when necessary, a stream of nitrogen gas was used to keep intratumor temperatures below 37° C. Animals were examined and measured daily for the first 14 days post treatment and every other day thereafter until the tumors reached 400 mm^3 in mice or until the tumors double in size for Fischer 344 female rats or for 90 days. Tumor size were measured in two dimensions with a caliper. Time to 400 mm^3 or volume doubling times of tumors from control and PDT-treated groups (8-12 animals per group) were compared statistically using the SAS statistical program (SAS, Inc., Cary, N.C.). A P-value of <0.05 is considered significant. The degree of damage to the normal skin within the irradiation field also were noted. Disappearance of tumor with minimal damage to normal skin is the most desirable response. Animals are considered cured if no tumor regrowth occurs by 90 days. In all studies, three control groups were utilized in addition to the treatment group receiving both sensitizer and light: 1) a complete control receiving neither drug nor light, 2) a group receiving sensitizer only, and 3) a group receiving light only. Representative animals from each of the treatment groups were processed for histology immediately, one day, or two weeks after irradiation. Step sections through the tumor were used to define the boundaries of tumor cell damage and death as a function of distance from the skin surface.

O=C([O-])COc1ccc(-c2c3nc(c(-c4ccc(F)cc4)c4ccc(s4)c(-c4ccc(F)cc4)c4nc(c(-c5ccc(OCC(=O)[O-])cc5)c5ccc2s5)C=C4)C=C3)cc1.[Na+].[Na+] [MA-99]
cures (no tumor regrowth 90 days post-treatment): five cures
mean time to 400 mm^3 of the animals not cured: 23 ± 7 days
